Experimental data from the supplement of paper PMC11061612.

Columns and labels:
Assay in all cases: Bliss excess, mean over the matrix (fraction); higher = more synergy
[1] = system: NCI-H1876 (Small Cell Lung Carcinoma)
In short: (§1)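 Bliss excess equals the observed combination effect minus the expected value EA + EB − EA·EB, where EA and EB are the effects of each agent alone. Combination Emax is the second-highest inhibition within the matrix. Inhibition was scaled from CellTiter-Glo 2.0 luminescence, with 0 set by vehicle wells and 1 by blank wells, after 72 hours of two-drug dosing of cells plated in 1536-well plates.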

[2] = system: PA-TU-8988T (Pancreatic Carcinoma)
In short: as §1

[3] = system: TUR (Acute Myeloid Leukemia)
In short: as §1

AM-38 (Glioblastoma) = system: AM-38 (Glioblastoma)
In short: as §1

[4] = system: NCI-H3118 (Head and Neck Carcinoma)
In short: as §1

T47D (Breast Carcinoma) = system: T47D (Breast Carcinoma)
In short: as §1

WM35 (Melanoma) = system: WM35 (Melanoma)
In short: as §1

[5] = system: ZR-75-30 (Breast Carcinoma)
In short: as §1

[6] = system: CL-11 (Colorectal Carcinoma)
In short: as §1

[7] = system: OVCAR-3 (Ovarian Carcinoma)
In short: as §1

[8] = system: MONO-MAC-6 (Acute Myeloid Leukemia)
In short: as §1

[9] = system: BxPC-3 (Pancreatic Carcinoma)
In short: as §1

[10] = system: NCI-H596 (Other Solid Carcinomas)
In short: as §1

[11] = system: MDA-MB-415 (Breast Carcinoma)
In short: as §1

NCI-H2373 (Mesothelioma) = system: NCI-H2373 (Mesothelioma)
In short: as §1

[12] = system: T84 (Colorectal Carcinoma)
In short: as §1

[13] = system: BHT-101 (Thyroid Gland Carcinoma)
In short: as §1

[14] = system: P30-OHK (B-Lymphoblastic Leukemia)
In short: as §1

NCI-H226 (Mesothelioma) = system: NCI-H226 (Mesothelioma)
In short: as §1

[15] = system: P32-ISH (Burkitt's Lymphoma)
In short: as §1

Compound | Bliss excess [1] | Bliss excess [2] | Bliss excess [3] | Bliss excess (AM-38 (Glioblastoma)) | Bliss excess [4] | Bliss excess (T47D (Breast Carcinoma)) | Bliss excess (WM35 (Melanoma)) | Bliss excess [5] | Bliss excess [6] | Bliss excess [7] | Bliss excess [8] | Bliss excess [9] | Bliss excess [10] | Bliss excess [11] | Bliss excess (NCI-H2373 (Mesothelioma)) | Bliss excess [12] | Bliss excess [13] | Bliss excess [14] | Bliss excess (NCI-H226 (Mesothelioma)) | Bliss excess [15]
Cc1c2c(nn1C)CSCc1cc(n(C)n1)CSc1cc(c3ccccc3c1)OCCCc1c(C(=O)O)n(C)c3c-2c(Cl)ccc13 [AZD5991] + C=CCn1c(=O)c2cnc(Nc3ccc(N4CCN(C)CC4)cc3)nc2n1-c1cccc(C(C)(C)O)n1 [AZD1775] (first compound max 1 µM, partner max 1 µM) | -0.0292 | -0.0321 | 0.0189 | -0.0015 | -0.0361 | -0.0369 | 0.027 | 0.0376 | -0.0112 | 0.031 | -0.0256 | -0.0125 | -0.0682 | 0.0011 | -0.0079 | -0.0287 | 0.0811 | 0.0077 | 0.018 | -0.0228
CC1(C)CCC(CN2CCN(c3ccc(C(=O)NS(=O)(=O)c4ccc(NCC5CCOCC5)c([N+](=O)[O-])c4)c(Oc4cnc5[nH]ccc5c4)c3)CC2)=C(c2ccc(Cl)cc2)C1 [Venetoclax] + C1CN(CCC1(C(=O)N[C@@H](CCO)C2=CC=C(C=C2)Cl)N)C3=NC=NC4=C3C=CN4 [Capivasertib] (first compound max 1 µM, 7x7, partner max 3 µM) | -0.0952 | 0.0237 | -0.0176 | -0.0742 | -0.0641 | -0.0113 | -0.0456 | -0.0324 | -0.0205 | -0.0288 | -0.0214 | -0.0171 | -0.0211 | -0.102 | -0.0774 | -0.0518 | -0.0312 | 0.058 | -0.0673 | -0.0094
C[C@@H](c1ccc2nccn2c1)n1nnc2ncc(-c3cnn(C)c3)nc21 [Savolitinib] + CC1(C)CCC(CN2CCN(c3ccc(C(=O)NS(=O)(=O)c4ccc(NCC5CCOCC5)c([N+](=O)[O-])c4)c(Oc4cnc5[nH]ccc5c4)c3)CC2)=C(c2ccc(Cl)cc2)C1 [Venetoclax] (first compound max 1 µM, 7x7, partner max 1 µM) | -0.0486 | -0.0763 | -0.0452 | -0.0839 | -0.0398 | -0.0753 | -0.065 | -0.0361 | -0.0576 | -0.0399 | 0.0005 | -0.0371 | -0.0369 | -0.0258 | -0.0512 | -0.0649 | -0.0341 | -0.0198 | -0.0342 | -0.0188
C[C@@H](c1ccc2nccn2c1)n1nnc2ncc(-c3cnn(C)c3)nc21 [Savolitinib] + Cc1c2c(nn1C)CSCc1cc(n(C)n1)CSc1cc(c3ccccc3c1)OCCCc1c(C(=O)O)n(C)c3c-2c(Cl)ccc13 [AZD5991] (first compound max 1 µM, 7x7, partner max 1 µM) | 0.0044 | -0.0205 | 0.0026 | -0.0194 | -0.0268 | -0.0426 | -0.0503 | -0.0388 | -0.0402 | -0.0341 | 0.0346 | -0.0496 | -0.0852 | -0.0462 | -0.0618 | -0.0652 | -0.0307 | 0.0046 | -0.04 | -0.0162
Cn1cnc2c(F)c(Nc3ccc(Br)cc3Cl)c(C(=O)NOCCO)cc21 [Selumetinib] + C[C@@H]1COCCN1C2=NC(=NC(=C2)C3(CC3)[S@](=N)(=O)C)C4=C5C=CNC5=NC=C4 [AZD6738] (first compound max 10 µM, 7x7, partner max 10 µM) | 0.0218 | 0.0731 | 0.0151 | 0.104 | 0.0091 | -0.0576 | 0.0172 | -0.0495 | 0.0244 | -0.0202 | -0.0052 | -0.0197 | -0.0333 | -0.0395 | -0.0019 | 0.1 | -0.0174 | 0.012 | -0.0364 | -0.0153
CN(C)CCCOc1ccc(-c2ccc3ncc4c(c3c2)n(C2CCOCC2)c(=O)n4C)cn1 [AZD0156] + O=C(c1cc(Cc2n[nH]c(=O)c3ccccc23)ccc1F)N1CCN(C(=O)C2CC2)CC1 [Olaparib] (first compound max 3 µM, partner max 3 µM) | 0.103 | 0.0235 | 0.0469 | 0.167 | 0.0479 | 0.0296 | -0.0272 | -0.0203 | 0.0647 | -0.0371 | 0.102 | -0.0342 | 0.0282 | 0.0017 | 0.0178 | -0.0535 | 0.0766 | 0.262 | -0.0594 | 0.211
COc1cccc(OCCCN)c1-c1cc(Nc2cnc(C#N)cn2)n[nH]1 [Prexasertib] + Cc1cc2ncnn2cc1Nc1ncc2c(n1)n(C1CCOCC1)c(=O)n2C [AZD7648] (first compound max 1 µM, 7x7, partner max 10 µM) | -0.0713 | 0.0389 | -0.0005 | 0.0296 | -0.0501 | -0.0055 | 0.0429 | -0.0463 | -0.0065 | -0.0213 | 0.0406 | -0.0908 | -0.026 | -0.0331 | -0.0099 | -0.0904 | 0.0399 | -0.0301 | -0.0568 | -0.0068
